Measured values reported in ChEMBL document CHEMBL5131552, “Diazepinone Compounds as Sppl2a Inhibitors for Treating Autoimmune Diseases and Lymphomas” (ACS Med Chem Lett, 2022).
pIC50: −log10 of the molar value.

Target: T1, Signal peptide peptidase-like 2A (Homo sapiens, UniProt Q8TCT8)
T1 sequence (Q8TCT8 whole entry): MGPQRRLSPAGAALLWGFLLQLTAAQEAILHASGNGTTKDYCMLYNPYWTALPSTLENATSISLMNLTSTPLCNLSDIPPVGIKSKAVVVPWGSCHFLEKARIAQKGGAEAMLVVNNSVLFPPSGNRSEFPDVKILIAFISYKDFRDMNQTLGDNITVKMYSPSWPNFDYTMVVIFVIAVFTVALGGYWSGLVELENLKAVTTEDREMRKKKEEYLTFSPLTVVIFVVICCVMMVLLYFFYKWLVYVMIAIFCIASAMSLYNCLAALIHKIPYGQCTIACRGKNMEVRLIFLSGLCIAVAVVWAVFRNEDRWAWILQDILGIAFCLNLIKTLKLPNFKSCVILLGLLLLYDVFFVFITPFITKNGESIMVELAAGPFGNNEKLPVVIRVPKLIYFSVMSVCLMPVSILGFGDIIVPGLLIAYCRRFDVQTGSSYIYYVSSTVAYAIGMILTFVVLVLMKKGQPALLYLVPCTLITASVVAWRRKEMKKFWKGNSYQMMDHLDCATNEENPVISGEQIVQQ
Experiment: Inhibition of human SPPL2A expressed in human U2OS cells assessed as nuclear mask transferring to EGFP channel using EGFP-labeled TNFalpha (aa1-76) NTF as substrate and measured after 24 hrs by Hoechst staining based translocation assay
Assay type: cell-based

pIC50: 9.00
SMILES: CC(C)C(=O)Nc1nc(Cl)c(NC(=O)C[C@@H](C)C(=O)N[C@@H]2C(=O)N3CCCN3Cc3ccccc32)s1
